Test results: patent publication US10857113B2, “Bezafibrate for the treatment of cancer” (Cipla Limited, priority 2016, dated 2020)
Read-outs that look alike come from different tables or passages of the source.

Key:
[1] = test system: ACHN; test: In vitro 3D clonogenic assay; assay type: cell-based; details: Homo sapiens, 3D model, colony formation, 8 to 13 days continuous exposure, read-out: Relative IC50
Experimental: (§1) Cell lines were routinely passaged one or twice weekly. All cells were grown at 37° C. in a humidified atmosphere with 5% CO2 in RPMI 1640 medium (Biochrom) supplemented with 10% (v/v) fetal calf serum and 0.1 mg/mL gentamicin. The percentage of viable cells was determined in a Neubauer-hemocytometer using trypan blue exclusion.
(§2) Tumor xenografts (patient-derived, as well as cell line-derived xenografts) were passaged as subcutaneous xenografts in NMRI nu/nu mice. At a tumor volume of 400-1,000 mm^3 tumor-bearing mice were sacrificed and tumors were collected under sterile conditions without delay according to the relevant Oncotest SOPs and the relevant animal welfare guidelines published by the FELASA and the GV-SOLAS. Tumors were mechanically disaggregated and subsequently incubated with an enzyme cocktail consisting of collagenase type IV (41 U/mL), DNase I (125 U/mL), hyaluronidase type III (100 U/mL), and dispase II (1.0 U/mL) in RPMI 1640 medium (Life Technologies) at 37° C. for 60-120 minutes. Cells were passed through sieves of 100 μm and 40 μm mesh size (Cell Strainer, BD Falcon™), and washed with RPMI 1640 medium. The percentage of viable cells was determined in a Neubauer-hemocytometer using trypan blue exclusion. Aliquots of the cells were frozen down, and stored in liquid nitrogen. On each day of an experiment, a frozen aliquot of tumor cells was thawed and used for preparation of assay plates.
(§3) The clonogenic assay was carried out in a 96 well plate format using ultra low attachment plates. For each test, cells were prepared as described above and assay plates were prepared as follows: each test well contained a layer of semi-solid medium with tumor cells (50 and a second layer of medium supernatant with or without test compound (100 The cell layer consisted of 2.5·10^3 to 1·10^4 tumor cells per well, which were seeded in 50 μL/well cell culture medium (IMDM, supplemented with 20% (v/v) fetal calf serum, 0.01% (w/v) gentamicin, and 0.4% (w/v) agar). After 24 hours the test compounds were added after serial dilution in cell culture medium, and left on the cells for the duration of the experiment (continuous exposure, 100 μl drug overlay). Every plate included six untreated control wells and drug-treated groups in duplicate at 9 concentrations. Cultures were incubated at 37° C. and 7.5% CO2 in a humidified atmosphere for 8 to 13 days and monitored closely for colony growth using an inverted microscope. Within this period, ex vivo tumor growth led to the formation of colonies with a diameter of >50 μm. At the time of maximum colony formation, counts were performed with an automatic image analysis system (CellInsight NXT, Thermo Scientific). 48 hours prior to evaluation, vital colonies were stained with a sterile aqueous solution of 2-(4-iodophenyl)-3-(4-nitrophenyl)-5-phenyltetrazolium chloride (1 mg/ml, 100 μl/well).

[2] = test system: Caki-1; test: In vitro 3D clonogenic assay; assay type: cell-based; details: Homo sapiens, 3D model, colony formation, 8 to 13 days continuous exposure
Experimental: as §1, §2, §3

[3] = test system: RXF 1183L; test: In vitro 3D clonogenic assay; assay type: cell-based; details: Homo sapiens, 3D model, colony formation, 8 to 13 days continuous exposure
Experimental: as §1, §2, §3

[4] = test system: RXF 1220L; test: In vitro 3D clonogenic assay; assay type: cell-based; details: Homo sapiens, 3D model, colony formation, 8 to 13 days continuous exposure
Experimental: as §1, §2, §3

[5] = test system: RXF 1781L; test: In vitro 3D clonogenic assay; assay type: cell-based; details: Homo sapiens, 3D model, colony formation, 8 to 13 days continuous exposure
Experimental: as §1, §2, §3

[6] = test system: RXF 393L; test: In vitro 3D clonogenic assay; assay type: cell-based; details: Homo sapiens, 3D model, colony formation, 8 to 13 days continuous exposure
Experimental: as §1, §2, §3

[7] = test system: RXF 486L; test: In vitro 3D clonogenic assay; assay type: cell-based; details: Homo sapiens, 3D model, colony formation, 8 to 13 days continuous exposure
Experimental: as §1, §2, §3

[8] = test system: SN12C; test: In vitro 3D clonogenic assay; assay type: cell-based; details: Homo sapiens, 3D model, colony formation, 8 to 13 days continuous exposure
Experimental: as §1, §2, §3

[9] = test system: human tumor cell models for RCC; test: In vitro 3D clonogenic assay, all tumor models; assay type: cell-based; details: 3D model, geometric mean over 10 tumor models
Experimental: as §1
as §2, with “Cells were passed through sieves of 100 μm and 40 μm mesh size (Cell Strainer, BD Falcon™), and washed with RPMI 1640 medium.” left out, “Aliquots of the cells were frozen down, and stored in liquid nitrogen. On each day of an experiment, a frozen aliquot of tumor cells was thawed and used for preparation of assay plates.” left out
The clonogenic assay was carried out in a 96 well plate format using ultra low attachment plates. […] Cultures were incubated at 37° C. and 7.5% CO2 in a humidified atmosphere for 8 to 13 days and monitored closely for colony growth using an inverted microscope. […]

[10] = test system: A498 cells; test: In vivo animal efficacy study, subcutaneous tumor fragment xenograft; parameters: species or system female athymic nude mice; details: sunitinib 20 mg/kg, bezafibrate 150 mg/kg, p.o. q.d. × 21
Experimental: Healthy 10 female athymic nude mice were recruited for the donor cell inoculation. Animals were subcutaneously injected at flank region with 10 million A498 cells suspended in 200 μl of media and matrigel. Animals were monitored for solid tumor growth. […] Tumors were fragmented in to ˜30 mg size. […] [table] The tumor sizes were measured weekly twice from the date of tumor appearance till the end of the experiment. Tumor size was measured by digital vernier caliper (MITUTOYO) by measuring length (L=longest axis) and width (W=shortest axis). Tumor Volume (V) was calculated using formula: […] Mean tumor volume and % tumor growth inhibition (% TGI) were then calculated (SEM=standard error of mean).

[11] = background statement; cited from earlier work
[12] = background statement; cited from earlier work; remark: listed apart in the source

- IC50 [1]: 1060 µM
- IC50 ([2]; read-out: Absolute IC50): 1290 µM
- IC50 ([2]; read-out: Relative IC50): 1290 µM
- IC50 ([3]; read-out: Absolute IC50): 609 µM
- IC50 ([3]; read-out: Relative IC50): 712 µM
- IC50 ([4]; read-out: Absolute IC50): 1160 µM
- IC50 ([4]; read-out: Relative IC50): 1230 µM
- IC50 ([5]; read-out: Absolute IC50): 1030 µM
- IC50 ([5]; read-out: Relative IC50): 1100 µM
- IC50 ([6]; read-out: Absolute IC50): 1270 µM
- IC50 ([6]; read-out: Relative IC50): 1280 µM
- IC50 ([7]; read-out: Absolute IC50): 993 µM
- IC50 ([7]; read-out: Relative IC50): 962 µM
- IC50 ([8]; read-out: Absolute IC50): 463 µM
- IC50 ([8]; read-out: Relative IC50): 463 µM
- IC50 ([9]; read-out: Geometric mean absolute IC50): 945 µM
- IC50 ([9]; read-out: Geometric mean relative IC50): 985 µM
SMILES: CC(C)(Oc1ccc(CCNC(=O)c2ccc(Cl)cc2)cc1)C(=O)O [Bezafibrate]
- Tumor Growth Inhibition ([10]; Day 1): 0.44%
- Tumor Volume, Mean ([10]; Day 1): 146.92 mm^3
- Tumor Volume, Mean ([10]; Day 6): 198.50 mm^3
- Tumor Growth Inhibition ([10]; Day 9): 21.70%
- Tumor Volume, Mean ([10]; Day 9): 363.14 mm^3
- Tumor Growth Inhibition ([10]; Day 13): 24.92%
- Tumor Volume, Mean ([10]; Day 13): 463.30 mm^3
- Tumor Growth Inhibition ([10]; Day 16): 26.18%
- Tumor Volume, Mean ([10]; Day 16): 709.65 mm^3
- Tumor Growth Inhibition ([10]; Day 20): 31.59%
- Tumor Volume, Mean ([10]; Day 20): 875.99 mm^3
- Anti-tumor efficacy / effect in inhibiting tumor growth (in words) [10]: shows anti-tumor efficacy
- Reduction of low-density lipoprotein cholesterol (LDL-C) [11]: 15-20%
- Reduction of triglycerides [11]: 30-50%
- Absorption following oral administration [12]: well absorbed
